Earlier results on 1 compound are cited in US9445901B2, “Prosthesis with sustained release analgesic” (priority 2003, dated 2016).

Molecules are shown by their SMILES. Structures can show the parent of a compound that is named as a salt.

For the data set the following is noted: man, after injection for caudal, epidural or peripheral nerve block.

With `CCCCN1CCCCC1C(=O)Nc1c(C)cccc1C` (centres unmarked) [Marcaine, bupivacaine hydrochloride], the “decline of blood levels after the peak” value is on record as “decline to insignificant levels during the next three to six hours” and the “time to peak levels of bupivacaine in the blood” value is 30 to 45 min.
